Measured values taken from publication PMC7473970, “Preformulation Studies of a Stable PTEN-PDZ Lipopeptide Able to Cross an In Vitro Blood-Brain-Barrier Model as a Potential Therapy for Alzheimer’s Disease” (Pharmaceutical Research, 2020).
Like-named read-outs stand apart in the source and are kept apart here. Residues, ends and D or L forms follow the SMILES beside them.

Key:
[1] = In vitro stability in simulated intestinal fluid (mouse intestinal wash); type: in vitro ADME; settings: 120 μL of 5 mM DMSO stock in 1080 μL, 37°C, 0-1440 min, HPLC-UV 220 nm, n = 3; for k: Simulated intestinal fluid = undiluted pooled CD-1 mouse duodenum/ileum wash in 50 mM phosphate buffer pH 6.63, 100 rpm, one phase decay, least square fit; for t1/2 (h) / t1/2 (min): Simulated intestinal fluid = undiluted pooled CD-1 mouse duodenum/ileum wash, phosphate buffer pH 6.63, one phase decay fit
Method: (§1) The samples were analyzed at 40°C on a Phenomenex Lichrosorb RP8 C8 column (4.0 mm × 250 mm, 5 μm), using the gradient elution method on an Agilent HPLC system (Agilent Technologies, Cheadle, UK) equipped with an 1100 series degasser, quaternary pump, autosampler, and column heater, and attached to an Agilent 1200 series PDA detector and a 1250 series fluorescent detector. The flow rate was set at 1.2 mL min^-1, and the injection volume was set at 40 μL, while detection was performed at 220 nm. The mobile phase was a mixture of mobile phase A (0.1% TFA in water) and phase B (0.08% TFA in acetonitrile), and in the first 5 min, the mobile phase was an 8:2 ratio of A:B (v/v) and from 5 to 15 min the percentage of B was raised from 8:2 to 1:9 (v/v). Linear calibration curves were constructed for both peptides between 0.1–100 μg.mL^−1. The retention time for the human Lau–PTEN-PDZ, mouse Lau–PTEN-PDZ, human Myr–PTEN-PDZ, and mouse Myr–PTEN-PDZ was 12.03, 11.60, 13.68, and 13.91, respectively.
The duodenum and ileum were excised from 10 non-fasted CD-1 male mice (7 weeks-old: Charles River Laboratories) that were sacrificed with CO2. Each duodenum and ileum were washed with 6 ml of phosphate buffer (50 mM, pH 6.63), and all the washes were pooled prior to centrifugation at 4000 rpm for 15 min at 4°C (Heraeus Multifuge 3sf) ([7],[15]). The intestinal wash was removed and frozen at −80°C prior to using it in stability studies without further dilution. Peptides stocks (5 mM in DMSO) were prepared and maintained at −20°C prior to performing stability studies. A stock peptide solution (120 μL) was added to the diluted pre-warmed (37°C) intestinal wash (1080 μL) with agitation at 100 rpm (Grant Aqua Waterbath), and samples (80 μL) were taken at 0, 15, 30, 45, 60, 90, 120, 180, 240, 360 and 1440 min, and diluted with ice-cold glacial acetic acid (17.5 M): acetonitrile (5:95 v/v, 80 μL) to quench the enzyme activity. Samples were vortexed and left in −80°C at least overnight to maximize protein precipitation, and after vortexing again for 15 min and centrifuging, the supernatant was analyzed by HPLC as described above.

[2] = In vitro stability in 50% brain homogenate; type: in vitro ADME, mouse; settings: 37°C, HPLC-UV 220 nm, one phase decay, least square fit, n = 3; for k: 50% w/v CD-1 mouse brain homogenate in PBS pH 7.4, 120 μL of 5 mM DMSO stock in 1080 μL, 100 rpm, 0-1440 min; for t1/2 (h) / t1/2 (min): 50% w/v mouse brain homogenate in PBS pH 7.4
Method: as §1
(§2) The liver and brain of the mice were excised from […] CD-1 male mice (7 weeks-old: Charles River Laboratories) sacrificed with CO2, and the tissue was frozen immediately with liquid nitrogen prior to storage at −80°C. The liver and brain tissue were thawed and homogenized on ice in PBS (2 mL/g of tissue) using a glass 3 mL tissue homogenizer (20 strokes per sample), and the liver and brain homogenates were centrifuged (Heraeus Multifuge 3sf, Fisher Scientific, Basingstoke, UK) at 4300 g for 60 min at 4°C and at 3000 g for 20 min at 4°C, respectively. The supernatant was stored at −80°C, diluted 1:1 (v/v) with PBS (1x, pH 7.4), and used in stability studies. Peptides stocks (5 mM in DMSO) were prepared and maintained at −20°C prior to performing stability studies. These stock solutions (120 μL) were added to the diluted pre-warmed (37°C) liver or brain homogenate (50% v/v, 1080 μL) with agitation (100 rpm: Grant Aqua Waterbath), and samples (80 μL) were taken at 0, 5, 10, 15, 30, 45, 60, 90, 120, 180, 240, 360 and 1440 min, and diluted with ice-cold acetonitrile (80 μL). Samples were vortexed and left at −80°C at least overnight to allow for maximum protein precipitation, the samples were vortexed again for 15 min, centrifuged and the supernatant was analyzed by HPLC as described above.
(§3) The total protein concentration in the homogenates was determined using the Bradford protein assay ([7],[15]) and BSA as a standard. Ten stock solutions of BSA were prepared in PBS between 0.1–1 mg mL^−1, and 40 μL of each of the diluted stocks were added to 1.2 mL of Bradford reagent and incubated at room temperature for 5 min. The absorbance was recorded at 595 nm using a Multiskan GO spectrophotometer and the SkanIt software (Thermo Scientific, Paisley, UK). A linear calibration curve was obtained in this range that was used to extrapolate the protein content of 1:100 v/v stock solutions of 50% mouse plasma, liver, and brain homogenates diluted in PBS.

[3] = In vitro stability in 50% v/v mouse plasma; type: in vitro ADME; settings: 37°C, HPLC-UV 220 nm, one phase decay, least square fit, n = 3; for k: 50% v/v CD-1 mouse plasma (K3 EDTA) in PBS, 120 μL of 5 mM DMSO stock in 1080 μL, 100 rpm, 0-1440 min
Method: CD-1 male mice (7 weeks old: Charles River Laboratories) were sacrificed with CO2, and blood was collected in K3E EDTA spray-coated vacutainers and kept on ice prior to centrifugation at 3000 rpm for 15 min at 4°C (Heraeus Multifuge 3sf). Mouse plasma samples were stored at −80°C before use in stability studies. Study was approved by the University of Portsmouth Animal Welfare and Ethical Review Body (UoP AWERB body, 817).
For testing, the plasma was diluted (1:1) in PBS without phenol and pre-warmed to 37°C. Peptides stocks (5 mM in DMSO) were prepared and maintained at −20°C before performing the stability studies. Peptide stock solutions (120 μL) were added to pre-warmed diluted plasma (50% v/v, 1080 μL) and maintained at 37°C with agitation (100 rpm: Grant Aqua Waterbath, Royston, UK). Samples (80 μL) were taken at 0, 3, 6,9, 15, 30, 45, 60, 90, 120, 180, 240, 360 and 1440 min, diluted with ice-cold acetonitrile (80 μL), vortexed and left in −80°C at least overnight to favor maximal protein precipitation. The samples were then vortexed again for 15 min (SciQuip microplate shaker, Shropshire, UK), centrifuged in a Thermo Sci Jouan B4i Centrifuge (Hemel Hampstead, UK) and the supernatant was transferred to an HPLC vial (200 μL).
as §1

[4] = Permeability across in vitro 2D human blood-brain barrier model; type: in vitro ADME
[5] = In vitro stability in 50% liver homogenate; type: in vitro ADME, mouse; settings: 37°C; for k: 50% w/v CD-1 mouse liver homogenate in PBS pH 7.4, 120 μL of 5 mM DMSO stock in 1080 μL, 100 rpm, 0-1440 min; for k / t1/2 (h) / t1/2 (min): HPLC-UV 220 nm, one phase decay, least square fit, n = 3; for t1/2 (h) / t1/2 (min): 50% w/v mouse liver homogenate in PBS pH 7.4
Method: as §1, §2, §3

[6] = read-out: Papp0-4h, Experiment 2
[7] = 50% w/v mouse liver homogenate, two phase decay fit, fast phase
[8] = 50% w/v mouse liver homogenate, two phase decay fit, slow phase

Row | SMILES | k [1] [h⁻¹] | t1/2 (h) [1] [h] | t1/2 (min) [1] [min] | k [2] [h⁻¹] | t1/2 (h) [2] [h] | t1/2 (min) [2] [min] | k [3] [h⁻¹] | t1/2 (h) ([3]; 50% v/v mouse plasma in PBS) | t1/2 (min) ([3]; 50% v/v mouse plasma in PBS) | Papp A→B at 100 μM [4, 6] [×10⁻⁶ cm/s] | k [5] [h⁻¹] | t1/2 (h) [5] [h] | t1/2 (min) [5] [min] | also measured
1 | CCCCCCCCCCCC(=O)N[C@@H](CCC(N)=O)C(=O)N[C@@H](Cc1c[nH]cn1)C(=O)N[C@H](C(=O)N[C@@H](CCC(N)=O)C(=O)N[C@H](C(=O)N[C@H](C(=O)N[C@@H](CCCCN)C(=O)N[C@H](C(=O)O)C(C)C)[C@@H](C)O)[C@@H](C)CC)[C@@H](C)O [Human Lau-PTEN-PDZ] (HELM PEPTIDE1{[CCCCCCCCCCCC(=O)[*:2]].Q.H.T.Q.I.T.K.V}$$$$V2.0) | 0.23 | 2.96 | 177.96 | 1.90 | 0.36 | 21.87 | 4.60 | 0.15 | 9.05 | 5.57 ± 0.29 | 1.15 | 0.60 | 36.28 | 
2 | CCCCCCCCCCCC(=O)N[C@@H](CCC(N)=O)C(=O)N[C@@H](Cc1c[nH]cn1)C(=O)N[C@@H](CO)C(=O)N[C@@H](CCC(N)=O)C(=O)N[C@H](C(=O)N[C@H](C(=O)N[C@@H](CCCCN)C(=O)N[C@H](C(=O)O)C(C)C)[C@@H](C)O)[C@@H](C)CC [Mouse Lau-PTEN-PDZ] (HELM PEPTIDE1{[CCCCCCCCCCCC(=O)[*:2]].Q.H.S.Q.I.T.K.V}$$$$V2.0) | 2.34 | 0.30 | 17.77 | 3.48 | 0.20 | 11.95 | 0.12 | 5.86 | 351.84 |  | 0.73 | 0.95 | 57.14 | half-life at 0.5 mM ([3]; male, CD-1, 50% v/v mouse plasma (K3 EDTA) diluted in PBS, 50% v/v mouse plasma in PBS): 354 min; Papp A→B at 100 μM ([4]; read-out: Papp0-4h, Experiment 1): 6.28 ± 1.85 ×10⁻⁶ cm/s
3 | CCCCCCCCCCCCCC(=O)N[C@@H](CCC(N)=O)C(=O)N[C@@H](Cc1c[nH]cn1)C(=O)N[C@H](C(=O)N[C@@H](CCC(N)=O)C(=O)N[C@H](C(=O)N[C@H](C(=O)N[C@@H](CCCCN)C(=O)N[C@H](C(=O)O)C(C)C)[C@@H](C)O)[C@@H](C)CC)[C@@H](C)O [Human Myr-PTEN-PDZ] (HELM PEPTIDE1{[CCCCCCCCCCCCCC(=O)[*:2]].Q.H.T.Q.I.T.K.V}$$$$V2.0) | 0.25 |  |  | 4.20 | 0.16 | 9.89 | 6.17 | 0.11 | 6.74 | 3.77 ± 0.39 | 0.04 | 18.5 | 1110 | k (fast) [5, 7]: 3.05 h⁻¹; t1/2 (h) fast [5, 7]: 0.23 h; t1/2 (min) fast [5, 7]: 13.63 min; k (slow) [5, 8]: 0.0005 h⁻¹; t1/2 (h) slow [5, 8]: 1510 h; t1/2 (min) slow [5, 8]: 90,600 min
